This note sets out measurements from PMC8764033, “Single-molecule analysis of specificity and multivalency in binding of short linear substrate motifs to the APC/C” (Nature Communications, 2022).

Where a SMILES comes first, the peptide text is derived from it.

Common to all, as to type: binding
Experiment [1] concerns the target T1, hCdc20^WD40 (Homo sapiens, UniProt Q12834).
T1 construct: human Cdc20 (aa 162–484; pNH188); made in house; host or cells: Sf9 insect cells (baculovirus)
Briefly: Fluorescence anisotropy, 10 nM Cy5-labeled peptide, hCdc20^WD40. In general terms: Fluorescence polarisation rises when a labelled molecule tumbles more slowly, as on binding a larger partner.

The target of experiment [2] is T2, hCdh1^WD40 (Homo sapiens, UniProt Q9UM11).
T2 construct: human Cdh1 (aa 165–484; pNH164); made in house; host or cells: Sf9 insect cells (baculovirus)
T2 sequence (Q9UM11 165-484): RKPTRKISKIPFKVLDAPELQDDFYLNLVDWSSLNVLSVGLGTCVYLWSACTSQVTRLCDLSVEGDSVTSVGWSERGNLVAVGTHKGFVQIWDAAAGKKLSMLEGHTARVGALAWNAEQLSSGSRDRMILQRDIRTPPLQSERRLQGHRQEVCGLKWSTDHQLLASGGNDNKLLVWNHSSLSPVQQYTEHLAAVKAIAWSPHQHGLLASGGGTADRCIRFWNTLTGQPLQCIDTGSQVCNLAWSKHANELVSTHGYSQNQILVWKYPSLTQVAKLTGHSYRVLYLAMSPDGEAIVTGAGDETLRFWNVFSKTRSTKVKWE
Briefly: Fluorescence anisotropy, 10 nM Cy5-labeled peptide, hCdh1^WD40. As to the method: Activators were cloned into the pFastBac HT A vector, with an N-terminal 2xStrep-Tag II. For some experiments, we constructed vectors for expression of the WD40 domains of yeast Cdh1 (aa 241–550; pNH144), human Cdh1 (aa 165–484; pNH164), or human Cdc20 (aa 162–484; pNH188). For SMOR, a C-terminal GFP tag was added. Bacmid plasmids are listed in Supplementary Table 3. Plasmids were transformed into DH10Bac cells, and purified Bacmid was used to transfect Sf9 cells to generate P1 baculovirus, which was used to generate P2 virus. SF9 cells were infected with the P2 virus for 48 h. […]
Fluorescent degron peptides carried a C-terminal Cy5 label (CPC Scientific) and are listed in Supplementary Table 4. For anisotropy experiments, 10 nM fluorescent peptide was mixed with various concentrations of purified Cdh1 WD40 in wash buffer B at room temperature for 1 min, which we determined was sufficient for the binding reaction to reach equilibrium. Fluorescence was measured on a K2 Multifrequency Fluorometer at 25 °C. All Cy5-labeled peptides were excited with polarized light at 635 nm and emission was detected using a 700/75 nm bandpass filter (ET series, Chroma). […] Results were the same when peptide binding was measured in the buffer used in SMOR assays (buffer C, below). […]

Experiment [3] deals with T3, Cdh1 WD40 domain (yeast) (Saccharomyces cerevisiae, UniProt P53197).
T3 construct: the WD40 domains of yeast Cdh1 (aa 241–550; pNH144); 2xStrep-Tag II (N); made in house; host or cells: Sf9 insect cells (baculovirus)
T3 sequence (P53197 241-550): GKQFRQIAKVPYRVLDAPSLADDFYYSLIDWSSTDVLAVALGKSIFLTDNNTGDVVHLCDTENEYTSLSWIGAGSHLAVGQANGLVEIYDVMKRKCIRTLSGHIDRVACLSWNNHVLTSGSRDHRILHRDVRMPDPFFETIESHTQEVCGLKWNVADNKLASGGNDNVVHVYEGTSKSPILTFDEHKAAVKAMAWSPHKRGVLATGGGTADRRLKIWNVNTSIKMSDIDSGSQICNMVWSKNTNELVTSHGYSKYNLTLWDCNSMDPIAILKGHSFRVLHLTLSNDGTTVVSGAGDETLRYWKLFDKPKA
Briefly: Fluorescence anisotropy, 10 nM Cy5-labeled degron peptide, yeast Cdh1 WD40. The settings on record: up to 30.6 µM Cdh1^WD40; for Kd: Fig. 1a, mean of 2 or 3 independent experiments, wash buffer B, 25 °C, dark peptide where named 100 µM unlabeled, read-out: KD (mean ± SE). The source says: To determine the affinities of APC/C degrons for their binding sites, we first used conventional equilibrium binding assays of degron peptide binding to the activator. We used the baculovirus system to produce the WD40 domain of Cdh1 from the budding yeast Saccharomyces cerevisiae and measured fluorescence anisotropy to assess the binding of fluorescently-tagged degron peptides at increasing activator concentrations. The WD40 domain of yeast Cdc20 could not be expressed and was not studied.
Activators were cloned into the pFastBac HT A vector, with an N-terminal 2xStrep-Tag II. For some experiments, we constructed vectors for expression of the WD40 domains of yeast Cdh1 (aa 241–550; pNH144), human Cdh1 (aa 165–484; pNH164), or human Cdc20 (aa 162–484; pNH188). For SMOR, a C-terminal GFP tag was added. Bacmid plasmids are listed in Supplementary Table 3. Plasmids were transformed into DH10Bac cells, and purified Bacmid was used to transfect Sf9 cells to generate P1 baculovirus, which was used to generate P2 virus. SF9 cells were infected with the P2 virus for 48 h. Flash-frozen pellets were lysed by sonication or high-pressure homogenization in lysis buffer B (50 mM Tris-HCl pH 8, 150 mM KCl, 0.5 mM EDTA, 1 mM DTT, 10% Glycerol, EDTA-free protease inhibitor tablet, 1 µg ml^−1 pepstatin A). After the lysate was applied to the StrepTrap column, the column was washed with wash buffer B (lysis buffer B lacking protease inhibitors) and eluted in the same buffer containing 2.5 mM desthiobiotin.
Fluorescent degron peptides carried a C-terminal Cy5 label (CPC Scientific) and are listed in Supplementary Table 4. For anisotropy experiments, 10 nM fluorescent peptide was mixed with various concentrations of purified Cdh1 WD40 in wash buffer B at room temperature for 1 min, which we determined was sufficient for the binding reaction to reach equilibrium. Fluorescence was measured on a K2 Multifrequency Fluorometer at 25 °C. All Cy5-labeled peptides were excited with polarized light at 635 nm and emission was detected using a 700/75 nm bandpass filter (ET series, Chroma). […] Data were fitted to one-site equilibrium binding using GraphPad Prism version 8.4 to determine KD. Results were the same when peptide binding was measured in the buffer used in SMOR assays (buffer C, below).

Broadly, the Kd is the constant that tells how readily two partners part at equilibrium.

T1 sequence (Q12834 162-484): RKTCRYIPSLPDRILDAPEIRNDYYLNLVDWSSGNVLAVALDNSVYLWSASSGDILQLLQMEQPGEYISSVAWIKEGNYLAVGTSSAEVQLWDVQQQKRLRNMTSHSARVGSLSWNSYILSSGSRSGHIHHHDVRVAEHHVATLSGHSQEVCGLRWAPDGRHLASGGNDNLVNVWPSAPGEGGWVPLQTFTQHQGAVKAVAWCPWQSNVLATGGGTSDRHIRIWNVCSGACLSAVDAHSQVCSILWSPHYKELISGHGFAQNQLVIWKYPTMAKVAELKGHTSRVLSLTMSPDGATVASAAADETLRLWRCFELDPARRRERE

For the compound “LPKATRKALGTVNRATEKSVK-K(Cy5) [AurKB D box, Cy5-labeled D box peptide of Aurora B kinase]”, the “binding to human Cdc20 (in words)” value in experiment [1] is recorded as “not Cdc20”. The “binding to human Cdh1 (in words)” value in experiment [2] is listed as “significant but low-affinity binding to Cdh1”.
In the case of `CC[C@H](C)[C@H](NC(=O)[C@H](CC(=O)O)NC(=O)[C@H](CO)NC(=O)[C@H](C)NC(=O)[C@H](C)NC(=O)[C@H](C)NC(=O)[C@H](C)NC(=O)[C@H](CCCCN)NC(=O)[C@@H]1CCCN1C(=O)[C@H](CCCCN)NC(=O)[C@H](CCC(N)=O)NC(=O)[C@@H](N)CCC(=O)O)C(=O)N[C@H](C(=O)N[C@@H](C)C(=O)N[C@@H](CO)C(=O)N[C@@H](Cc1ccccc1)C(=O)N[C@@H](CC(N)=O)C(=O)N[C@@H](CCCCN)C(=O)N[C@@H](CCSC)C(=O)N[C@@H](CC(N)=O)C(=O)N[C@@H](CCCCN)C(=O)O)[C@@H](C)O` [Hsl1 D box mutant] (H-EQKPKAAAASDITASFNKMNK-OH; N-terminus and C-terminus assumed), in experiment [3], the dissociation constant Kd is above 30.6 µM and the “binding to Cdh1 (in words)” value is “Binding was abolished”.
Take “SKAAQFMLYEETAEERNI-K(Cy5) [Acm1 ABBA, Cy5-labeled Cdh1-specific ABBA motif from pseudosubstrate yeast protein Acm1]”: in experiment [3], the “binding to Cdh1 (in words)” value is “bound with very low affinity to Cdh1”.
For the compound `CC(C)C[C@H](NC(=O)[C@H](C)NC(=O)[C@H](CCCNC(=N)N)NC(=O)[C@H](CCCNC(=N)N)NC(=O)[C@@H]1CCCN1C(=O)[C@H](CCCCN)NC(=O)[C@H](CO)NC(=O)[C@H](CC(=O)O)NC(=O)[C@@H](N)CCC(N)=O)C(=O)N[C@H](C(=O)N[C@@H](CC(=O)O)C(=O)N[C@H](C(=O)N1CCC[C@H]1C(=O)N[C@H](C(=O)N[C@@H](CC(N)=O)C(=O)N[C@@H](CC(N)=O)C(=O)N[C@@H](CC(N)=O)C(=O)N1CCC[C@H]1C(=O)N[C@@H](CC(C)C)C(=O)N[C@@H](CO)C(=O)N[C@@H](CCC(N)=O)C(=O)N[C@@H](CCCCN)C(=O)O)C(C)C)C(C)C)[C@@H](C)O` [Clb5 D box] (H-QDSKPRRALTDVPVNNNPLSQK-OH; N-terminus and C-terminus assumed), in experiment [3], the Kd was above 30.6 µM and the “binding to Cdh1 (in words)” value is given as “Neither D box displayed significant binding to Cdh1”.
Take `CC[C@H](C)[C@H](NC(=O)[C@H](Cc1ccccc1)NC(=O)[C@H](CO)NC(=O)[C@H](CCCCN)NC(=O)[C@H](CO)NC(=O)[C@H](CCCNC(=N)N)NC(=O)[C@H](CC(N)=O)NC(=O)[C@H](CC(N)=O)NC(=O)[C@H](CC(=O)O)NC(=O)[C@H](CCCCN)NC(=O)[C@H](C)NC(=O)[C@H](C)NC(=O)[C@H](CC(C)C)NC(=O)[C@@H]1CCCN1C(=O)[C@H](CC(C)C)NC(=O)[C@H](CCCNC(=N)N)NC(=O)CNC(=O)[C@H](CCC(N)=O)NC(=O)[C@H](CCC(N)=O)NC(=O)[C@H](CCC(N)=O)NC(=O)[C@H](C)N)C(=O)N[C@@H](CCCCN)C(=O)O` [ySecurin D box] (H-AQQQGRLPLAAKDNNRSKSFIK-OH; N-terminus and C-terminus assumed): in experiment [3], the equilibrium dissociation constant (Kd) is above 30.6 µM and the “binding to Cdh1 (in words)” value is listed as “Neither D box displayed significant binding to Cdh1”.
With “LIYVDKENGEPGTR-K(Cy5) [hSecurin KEN, Cy5-labeled KEN box peptide of human securin/Pttg1]”, in experiment [1], the “binding to human Cdc20 (in words)” value was “not Cdc20”. Moreover, the “binding to human Cdh1 (in words)” value in experiment [2] was “significant but low-affinity binding to Cdh1”.
